# Source: publication PMC11014671, “Small molecules that disrupt RAD54-BLM interaction hamper tumor proliferation in colon cancer chemoresistance models” (The Journal of Clinical Investigation, 2024)
# How the values were obtained:
# RAD54 = target: T1, RAD54 (Homo sapiens, UniProt Q92698); experiment: biolayer interferometry (His-RAD54 immobilized); tryptophan fluorescence quenching; format: binding
# T1 construct: gene RAD54L; His-RAD54
# T1 sequence (Q92698 1-747): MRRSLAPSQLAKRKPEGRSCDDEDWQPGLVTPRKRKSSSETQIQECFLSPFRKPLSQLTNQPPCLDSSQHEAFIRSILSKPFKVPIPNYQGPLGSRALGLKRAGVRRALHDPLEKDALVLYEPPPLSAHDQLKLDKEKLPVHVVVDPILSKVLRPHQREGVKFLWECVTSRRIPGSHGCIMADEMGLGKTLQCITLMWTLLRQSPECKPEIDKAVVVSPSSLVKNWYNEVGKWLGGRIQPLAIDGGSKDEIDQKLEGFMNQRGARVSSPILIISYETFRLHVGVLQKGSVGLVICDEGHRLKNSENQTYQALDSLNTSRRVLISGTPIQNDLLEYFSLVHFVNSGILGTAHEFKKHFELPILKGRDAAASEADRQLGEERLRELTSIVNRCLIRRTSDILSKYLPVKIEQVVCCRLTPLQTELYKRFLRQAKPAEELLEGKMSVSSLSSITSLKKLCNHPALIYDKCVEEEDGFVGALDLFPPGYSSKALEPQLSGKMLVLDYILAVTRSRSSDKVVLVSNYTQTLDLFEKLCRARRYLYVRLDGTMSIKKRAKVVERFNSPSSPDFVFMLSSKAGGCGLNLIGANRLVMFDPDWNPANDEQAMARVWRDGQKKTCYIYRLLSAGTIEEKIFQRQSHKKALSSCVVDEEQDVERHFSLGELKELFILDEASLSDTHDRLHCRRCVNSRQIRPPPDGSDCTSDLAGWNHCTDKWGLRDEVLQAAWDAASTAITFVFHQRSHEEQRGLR
# [1] = target: His-RAD54 WT (full-length recombinant RAD54) (UniProt Q92698); experiment: BLI; Octet; His-RAD54 WT immobilized onto Ni-NTA sensor, different concentrations of biotin BLM_peptide
Compound,Kd (RAD54),Kd [1]
"CC(=O)Nc1nnc(S(N)(=O)=O)s1 [C3, acetazolamide]",55.8 µM,
biotinylated BLM (aa 181–212) peptide,,0.0108 µM
